We go through two molecules from ChEMBL document CHEMBL1142754, “Lp-PLA2 inhibitory activities of fatty acid glycerols isolated from Saururus chinensis roots” (Bioorg Med Chem Lett, 2005).

As a reminder, the IC50 is the concentration that gives 50% inhibition. Lower therefore signals higher potency.

Each structure is given as a SMILES string.

A short description of this assay: Inhibitory concentration against lipoprotein-associated phospholipase A2 (Lp-PLA2) was determined in Pseudomonas fluorescens (DMS 115797).

As to `CCCCC/C=C\C/C=C\CCCCCCCC(=O)OC[C@H](O)CO`, the IC50 was found to be 52 µM.
Regarding `CCCCC/C=C\C/C=C\CCCCCCCC(=O)OC[C@@H](O)CO` [GLYCERYL MONOLINOLEATE], the IC50 was found to be 4.5 µM.
